In ChEMBL document CHEMBL3351757, “Design and synthesis of novel and highly-active pan-histone deacetylase (pan-HDAC) inhibitors” (Bioorg Med Chem, 2014):

Assays:
Histone deacetylase 2 = Histone deacetylase 2 (Homo sapiens, UniProt Q92769); test: Inhibition of human HDAC2 pre-incubated for 30 mins before substrate addition and measured after 30 mins by HDAC-Glo I/II assay
Histone deacetylase 8 = target: T1, Histone deacetylase 8 (Homo sapiens, UniProt Q9BY41); test: Inhibition of human HDAC8 pre-incubated for 30 mins before substrate addition and measured after 30 mins by HDAC-Glo I/II assay
T1 sequence (Q9BY41 whole entry): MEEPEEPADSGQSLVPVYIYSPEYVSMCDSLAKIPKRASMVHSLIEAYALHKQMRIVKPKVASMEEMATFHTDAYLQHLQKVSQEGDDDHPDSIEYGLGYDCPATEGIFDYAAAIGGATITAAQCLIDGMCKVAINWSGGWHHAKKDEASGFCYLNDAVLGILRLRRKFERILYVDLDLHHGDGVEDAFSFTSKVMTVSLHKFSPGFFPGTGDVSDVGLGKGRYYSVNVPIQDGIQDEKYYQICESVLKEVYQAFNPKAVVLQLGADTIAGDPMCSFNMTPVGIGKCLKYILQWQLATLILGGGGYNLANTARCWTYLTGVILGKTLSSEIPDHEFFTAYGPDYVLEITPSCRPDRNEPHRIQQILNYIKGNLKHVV

[1] = target: T2, Protein deacetylase HDAC6 (Homo sapiens, UniProt Q9UBN7); test: Inhibition of human HDAC6 pre-incubated for 30 mins before substrate addition and measured after 30 mins by HDAC-Glo I/II assay
T2 sequence (Q9UBN7 whole entry): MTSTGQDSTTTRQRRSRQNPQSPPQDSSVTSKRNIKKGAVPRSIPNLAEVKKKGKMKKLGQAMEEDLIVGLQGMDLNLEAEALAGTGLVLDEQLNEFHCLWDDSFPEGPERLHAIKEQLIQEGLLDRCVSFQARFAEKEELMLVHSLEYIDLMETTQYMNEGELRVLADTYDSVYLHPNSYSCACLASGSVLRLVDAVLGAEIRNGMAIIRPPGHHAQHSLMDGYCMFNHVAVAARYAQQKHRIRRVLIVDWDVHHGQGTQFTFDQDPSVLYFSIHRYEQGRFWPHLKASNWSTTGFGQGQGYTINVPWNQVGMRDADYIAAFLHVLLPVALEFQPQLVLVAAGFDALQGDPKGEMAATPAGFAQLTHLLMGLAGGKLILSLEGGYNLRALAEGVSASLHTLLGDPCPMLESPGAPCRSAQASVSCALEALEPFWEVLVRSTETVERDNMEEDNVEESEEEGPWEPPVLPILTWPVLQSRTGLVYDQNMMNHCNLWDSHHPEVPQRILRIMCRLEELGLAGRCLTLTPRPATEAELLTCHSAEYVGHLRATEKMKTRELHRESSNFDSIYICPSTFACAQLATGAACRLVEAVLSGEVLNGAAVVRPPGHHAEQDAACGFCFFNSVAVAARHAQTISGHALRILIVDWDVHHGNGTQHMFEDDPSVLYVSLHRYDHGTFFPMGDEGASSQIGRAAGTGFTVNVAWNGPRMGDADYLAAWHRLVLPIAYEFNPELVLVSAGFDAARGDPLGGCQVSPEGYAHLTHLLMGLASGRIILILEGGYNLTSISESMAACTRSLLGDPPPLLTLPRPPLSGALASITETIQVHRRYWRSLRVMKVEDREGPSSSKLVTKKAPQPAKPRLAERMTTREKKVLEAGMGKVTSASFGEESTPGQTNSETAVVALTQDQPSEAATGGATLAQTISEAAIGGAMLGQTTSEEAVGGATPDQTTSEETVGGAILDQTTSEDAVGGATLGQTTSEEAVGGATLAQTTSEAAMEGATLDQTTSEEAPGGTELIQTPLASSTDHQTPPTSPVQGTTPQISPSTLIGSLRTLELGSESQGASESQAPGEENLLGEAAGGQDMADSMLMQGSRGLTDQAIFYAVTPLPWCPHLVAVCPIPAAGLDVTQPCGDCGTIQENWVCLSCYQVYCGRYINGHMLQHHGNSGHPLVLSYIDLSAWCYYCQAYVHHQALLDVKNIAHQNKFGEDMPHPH

Histone deacetylase 3 = Histone deacetylase 3 (Homo sapiens, UniProt O15379); test: Inhibition of human HDAC3 pre-incubated for 30 mins before substrate addition and measured after 30 mins by HDAC-Glo I/II assay
Histone deacetylase 4 = Histone deacetylase 4 (Homo sapiens, UniProt P56524); test: Inhibition of human HDAC4 pre-incubated for 30 mins before substrate addition and measured after 30 mins by HDAC-Glo I/II assay
[2] = target: T3, Histone deacetylase (Rattus norvegicus) (UniProt Q6P6W3+Q99P99+Q99P96+Q4QQW4+Q99P97+Q5RJZ2+B1WBY8); conditions: at 0.1 µM
Description: Inhibition of rat liver HDAC at 0.1 uM pre-incubated for 15 mins before Boc-Lys(Ac)-AMC substrate addition and measured after 30 mins by fluorometry

Histone deacetylase 1 = Histone deacetylase 1 (Homo sapiens, UniProt Q13547); test: Inhibition of human HDAC1 pre-incubated for 30 mins before substrate addition and measured after 30 mins by HDAC-Glo I/II assay
[3] = target: T3, Histone deacetylase (Rattus norvegicus); conditions: at 10 µM
Description: Inhibition of rat liver HDAC at 10 uM pre-incubated for 15 mins before Boc-Lys(Ac)-AMC substrate addition and measured after 30 mins by fluorometry

Histone deacetylase 9 = Histone deacetylase 9 (Homo sapiens, UniProt Q9UKV0); test: Inhibition of human HDAC9 pre-incubated for 30 mins before substrate addition and measured after 30 mins by HDAC-Glo I/II assay
Chain of Histone deacetylase 9 (Q9UKV0 whole entry): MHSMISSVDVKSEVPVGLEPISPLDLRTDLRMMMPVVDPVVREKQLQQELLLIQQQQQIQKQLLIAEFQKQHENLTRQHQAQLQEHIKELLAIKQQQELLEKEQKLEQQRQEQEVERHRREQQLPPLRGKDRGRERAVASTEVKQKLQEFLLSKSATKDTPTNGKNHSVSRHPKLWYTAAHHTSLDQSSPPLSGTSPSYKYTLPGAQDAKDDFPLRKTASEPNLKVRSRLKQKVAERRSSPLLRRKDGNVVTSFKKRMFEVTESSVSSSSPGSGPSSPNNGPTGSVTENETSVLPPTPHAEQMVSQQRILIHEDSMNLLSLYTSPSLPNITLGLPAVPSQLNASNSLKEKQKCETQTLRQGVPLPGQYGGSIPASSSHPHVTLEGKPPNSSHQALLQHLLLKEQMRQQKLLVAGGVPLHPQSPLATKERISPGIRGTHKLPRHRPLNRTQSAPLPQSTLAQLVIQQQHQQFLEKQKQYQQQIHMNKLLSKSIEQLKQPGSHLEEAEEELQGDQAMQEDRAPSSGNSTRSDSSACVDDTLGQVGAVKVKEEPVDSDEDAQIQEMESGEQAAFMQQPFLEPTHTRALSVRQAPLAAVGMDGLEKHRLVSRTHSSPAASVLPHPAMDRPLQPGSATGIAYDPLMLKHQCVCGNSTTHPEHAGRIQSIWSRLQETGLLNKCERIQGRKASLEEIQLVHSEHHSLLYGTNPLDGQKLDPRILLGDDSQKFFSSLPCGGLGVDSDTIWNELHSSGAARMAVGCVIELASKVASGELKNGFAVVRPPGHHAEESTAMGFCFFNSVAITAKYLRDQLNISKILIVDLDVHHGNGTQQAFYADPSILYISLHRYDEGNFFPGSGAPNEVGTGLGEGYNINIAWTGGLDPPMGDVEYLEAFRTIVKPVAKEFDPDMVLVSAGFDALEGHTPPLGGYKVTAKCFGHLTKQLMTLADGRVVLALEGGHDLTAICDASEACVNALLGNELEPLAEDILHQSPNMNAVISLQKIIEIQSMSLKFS

Chain of Histone deacetylase 4 (P56524 whole entry): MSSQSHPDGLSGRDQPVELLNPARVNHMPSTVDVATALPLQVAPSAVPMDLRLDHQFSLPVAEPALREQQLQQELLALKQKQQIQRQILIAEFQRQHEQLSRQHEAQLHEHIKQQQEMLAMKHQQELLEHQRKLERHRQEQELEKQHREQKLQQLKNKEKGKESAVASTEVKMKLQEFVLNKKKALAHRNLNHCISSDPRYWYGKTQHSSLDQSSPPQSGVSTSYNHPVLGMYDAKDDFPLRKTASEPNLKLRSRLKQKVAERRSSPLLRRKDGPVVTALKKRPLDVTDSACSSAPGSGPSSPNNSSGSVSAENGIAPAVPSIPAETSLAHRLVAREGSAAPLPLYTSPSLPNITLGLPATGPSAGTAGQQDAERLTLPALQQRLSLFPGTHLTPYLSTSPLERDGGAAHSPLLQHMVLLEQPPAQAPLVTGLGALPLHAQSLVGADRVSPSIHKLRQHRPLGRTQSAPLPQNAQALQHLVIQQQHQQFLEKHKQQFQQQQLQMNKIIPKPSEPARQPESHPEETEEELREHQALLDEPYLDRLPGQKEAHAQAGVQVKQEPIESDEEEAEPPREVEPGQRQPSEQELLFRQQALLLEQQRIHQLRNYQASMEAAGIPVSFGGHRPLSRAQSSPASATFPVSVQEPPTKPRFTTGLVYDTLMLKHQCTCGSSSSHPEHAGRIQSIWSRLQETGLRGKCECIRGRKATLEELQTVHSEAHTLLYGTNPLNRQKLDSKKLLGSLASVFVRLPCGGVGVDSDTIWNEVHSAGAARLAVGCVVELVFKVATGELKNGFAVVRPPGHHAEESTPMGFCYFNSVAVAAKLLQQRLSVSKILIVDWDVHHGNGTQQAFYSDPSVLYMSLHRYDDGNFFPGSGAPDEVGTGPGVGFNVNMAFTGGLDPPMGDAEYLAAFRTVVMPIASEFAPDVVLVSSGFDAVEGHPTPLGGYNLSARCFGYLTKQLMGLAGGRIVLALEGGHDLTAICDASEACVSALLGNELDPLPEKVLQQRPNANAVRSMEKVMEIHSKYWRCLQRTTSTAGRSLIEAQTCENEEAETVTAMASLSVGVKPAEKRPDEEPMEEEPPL
Chain of Histone deacetylase 3 (O15379 whole entry): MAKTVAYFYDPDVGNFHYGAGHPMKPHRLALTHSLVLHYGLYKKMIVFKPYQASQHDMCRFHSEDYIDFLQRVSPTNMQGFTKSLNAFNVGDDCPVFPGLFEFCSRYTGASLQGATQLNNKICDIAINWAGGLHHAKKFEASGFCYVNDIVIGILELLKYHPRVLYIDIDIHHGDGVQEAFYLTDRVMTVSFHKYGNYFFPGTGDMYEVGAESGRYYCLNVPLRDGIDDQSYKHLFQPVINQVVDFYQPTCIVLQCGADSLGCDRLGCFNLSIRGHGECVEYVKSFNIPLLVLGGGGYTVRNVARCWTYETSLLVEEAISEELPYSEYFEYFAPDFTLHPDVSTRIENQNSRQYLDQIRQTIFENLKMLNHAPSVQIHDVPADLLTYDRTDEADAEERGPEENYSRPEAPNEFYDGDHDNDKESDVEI
Chain of Histone deacetylase 1 (Q13547 whole entry): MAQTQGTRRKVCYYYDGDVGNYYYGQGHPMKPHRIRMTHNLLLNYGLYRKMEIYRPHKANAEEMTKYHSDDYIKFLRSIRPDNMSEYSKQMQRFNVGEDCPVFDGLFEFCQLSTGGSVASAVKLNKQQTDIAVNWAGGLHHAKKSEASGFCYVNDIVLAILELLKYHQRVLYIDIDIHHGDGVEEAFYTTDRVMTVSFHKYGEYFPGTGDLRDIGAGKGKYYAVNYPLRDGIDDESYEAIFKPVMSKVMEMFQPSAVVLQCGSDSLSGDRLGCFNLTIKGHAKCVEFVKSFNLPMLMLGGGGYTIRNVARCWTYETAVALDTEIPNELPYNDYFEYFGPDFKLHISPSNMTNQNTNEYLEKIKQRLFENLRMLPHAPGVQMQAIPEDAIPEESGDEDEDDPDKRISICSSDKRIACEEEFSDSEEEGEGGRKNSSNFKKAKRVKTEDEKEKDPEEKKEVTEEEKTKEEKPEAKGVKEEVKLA
Chain of Histone deacetylase 2 (Q92769 whole entry): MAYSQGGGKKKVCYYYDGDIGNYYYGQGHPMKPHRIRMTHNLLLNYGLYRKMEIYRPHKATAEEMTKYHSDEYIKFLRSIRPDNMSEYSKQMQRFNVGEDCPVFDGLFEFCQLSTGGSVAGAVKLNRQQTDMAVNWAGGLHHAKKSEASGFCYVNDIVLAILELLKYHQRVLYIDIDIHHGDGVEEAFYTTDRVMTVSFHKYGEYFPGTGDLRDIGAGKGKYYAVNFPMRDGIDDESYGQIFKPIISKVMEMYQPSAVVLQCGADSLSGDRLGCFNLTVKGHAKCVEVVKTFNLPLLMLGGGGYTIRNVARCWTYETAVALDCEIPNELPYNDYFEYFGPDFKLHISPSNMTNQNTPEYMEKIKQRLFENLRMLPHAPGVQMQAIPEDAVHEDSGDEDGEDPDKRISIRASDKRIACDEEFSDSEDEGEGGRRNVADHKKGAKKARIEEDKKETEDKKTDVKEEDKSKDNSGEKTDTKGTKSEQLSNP

Row | SMILES | IC50 (Histone deacetylase 2) [nM] | IC50 (Histone deacetylase 8) [nM] | IC50 [1] [nM] | IC50 (Histone deacetylase 3) [nM] | IC50 (Histone deacetylase 4) [nM] | inhibition [2] [%] | IC50 (Histone deacetylase 1) [nM] | inhibition [3] [%] | IC50 (Histone deacetylase 9) [nM]
1 | CN1C(=O)CC(C)(C)c2cc(C(=O)NCCCCCCC(=O)NO)ccc21 | 100 | 59 | 130 | 28 | 280 | 50 | 43 | 99 | 120
2 | O=C(CCCCCCNC(=O)c1ccc2[nH]c(=O)ccc2c1)NO | 25 | 73 | 280 | 180 | 280 | 68 | 24 | 100 | 46
3 | O=C(CCCOc1ccc2c(c1)CCC(=O)N2)NO |  |  |  |  |  | 9 |  | 65 | 
4 | O=C(CCCCCC(=O)Nc1ccc2c(c1)CCC(=O)N2)NO |  |  |  |  |  | 24 |  | 95 | 
5 | CC1(C)CC(=O)Nc2ccc(C(=O)NC[C@H]3CC[C@@H](/C=C/C(=O)NO)CC3)cc21 | 310 | 21 | 720 | 370 | 750 | 22 | 190 | 92 | 91
6 | O=C(CCCCCCCNC(=O)c1ccc2c(c1)CCC(=O)N2)NO |  |  |  |  |  | 40 |  | 98 | 
7 | O=C(CCCCCCNS(=O)(=O)c1ccc2c(c1)CCC(=O)N2)NO |  |  |  |  |  | 15 |  | 94 | 
8 | COc1ccc2cc(C(=O)NCCCCCCC(=O)NO)ccc2n1 | 170 | 80 | 40 | 28 | 78 | 70 | 52 | 100 | 34
9 | O=C(CCCCCOc1cccc2c1NC(=O)CC2)NO |  |  |  |  |  | 4 |  | 80 | 
10 | O=C(CCCCCCNC(=O)c1ccc2c(c1)CCC(=O)N2)NO | 20 | 53 | 430 | 85 | 120 | 45 | 24 | 98 | 35
11 | CC1(C)CC(=O)Nc2ccc(C(=O)NC[C@H]3CC[C@H](CCC(=O)NO)CC3)cc21 | 35 | 28 | 440 | 89 | 220 | 43 | 35 | 99 | 57
12 | O=C(CCCCCOc1ccc2c(c1)CCC(=O)N2)NO |  |  |  |  |  | 13 |  | 91 | 
13 | O=C(CCCCCOc1ccc2ccc(=O)[nH]c2c1)NO |  |  |  |  |  | 21 |  | 93 | 
14 | O=C(CCCCCOc1ccc2c(c1)NC(=O)CC2)NO |  |  |  |  |  | 13 |  | 91 | 
15 | CN1C(=O)CC(C)(C)c2cc(NC(=O)CCCCCCC(=O)NO)ccc21 |  |  |  |  |  | 55 |  | 98 | 
16 | CC1(C)CC(=O)Nc2ccc(C(=O)NC[C@H]3CC[C@H](/C=C/C(=O)NO)CC3)cc21 | 8.2 | 6 | 58 | 15 | 58 | 55 | 3.8 | 98 | 5.2
17 | O=C(CCCCCCS(=O)(=O)Nc1ccc2c(c1)CCC(=O)N2)NO |  |  |  |  |  | 11 |  | 91 | 
18 | CC1(C)CC(=O)Nc2cc(OCCCCCC(=O)NO)ccc21 |  |  |  |  |  | 11 |  | 91 | 
19 | O=C(CCCCCOc1ccc2[nH]c(=O)ccc2c1)NO |  |  |  |  |  | 19 |  | 94 | 
20 | O=C(CCCCCCC(=O)Nc1ccc2c(c1)CCC(=O)N2)NO | 18 | 94 | 630 | 91 | 120 | 51 | 14 | 98 | 25

Row | SMILES | IC50 (Histone deacetylase 2) [nM] | IC50 (Histone deacetylase 8) [nM] | IC50 [1] [nM] | IC50 (Histone deacetylase 3) [nM] | IC50 (Histone deacetylase 4) [nM] | inhibition [2] [%] | IC50 (Histone deacetylase 1) [nM] | inhibition [3] [%] | IC50 (Histone deacetylase 9) [nM]
21 | CC1(C)CC(=O)Nc2ccc(C(=O)NCCCCCCC(=O)NO)cc21 | 93 | 55 | 92 | 69 | 63 | 44 | 30 | 98 | 39
22 | O=C(CCCCCOc1ccc2oc(=O)ccc2c1)NO |  |  |  |  |  | 12 |  | 91 | 
23 | COC1=Nc2ccc(NC(=O)CCCCCCC(=O)NO)cc2C(C)(C)C1 |  |  |  |  |  | 52 |  | 99 | 
24 | O=C(CCCCCOc1cccc2ccc(=O)[nH]c12)NO |  |  |  |  |  | 7 |  | 86 | 
25 | CN1C(=O)CCc2cc(C(=O)NCCCCCCC(=O)NO)ccc21 |  |  |  |  |  | 51 |  | 99 | 
26 | O=C(CCCCCCNS(=O)(=O)c1ccc2[nH]c(=O)ccc2c1)NO |  |  |  |  |  | 18 |  | 94 | 
27 | CC1(C)CC(=O)Nc2ccc(S(=O)(=O)NCCCCCCC(=O)NO)cc21 |  |  |  |  |  | 17 |  | 94 | 
28 | O=C(CCCCCCC(=O)Nc1ccc2[nH]c(=O)ccc2c1)NO | 45 | 48 | 66 | 54 | 63 | 66 | 35 | 99 | 58
29 | O=C(CCCCCOc1cccc2c1CCC(=O)N2)NO |  |  |  |  |  | 7 |  | 86 | 
30 | Cn1c(=O)ccc2cc(C(=O)NCCCCCCC(=O)NO)ccc21 | 90 | 72 | 86 | 98 | 86 | 63 | 89 | 99 | 41
31 | CC1(C)CC(=O)Nc2ccc(NC(=O)CCCCCCC(=O)NO)cc21 | 10 | 33 | 550 | 89 | 47 | 58 | 9.1 | 98 | 45
32 | CCOC1=Nc2ccc(NC(=O)CCCCCCC(=O)NO)cc2C(C)(C)C1 |  |  |  |  |  | 42 |  | 97 | 
33 | CC1(C)CC(=O)Nc2c(F)cc(NC(=O)CCCCCCC(=O)NO)cc21 |  |  |  |  |  | 49 |  | 99 | 
34 | O=C(CCCCCCCC(=O)Nc1ccc2c(c1)CCC(=O)N2)NO |  |  |  |  |  | 30 |  | 97 | 
35 | CC1(C)CC(=O)Nc2c(F)cc(C(=O)NCCCCCCC(=O)NO)cc21 |  |  |  |  |  | 57 |  | 99 | 
36 | O=C(CCCCCCC(=O)Nc1ccc2oc(=O)ccc2c1)NO |  |  |  |  |  | 46 |  | 98 | 
37 | CC1(C)CC(=O)Nc2ccc(OCCCCCC(=O)NO)cc21 |  |  |  |  |  | 11 |  | 88 | 
38 | CC1(C)CC(=O)Nc2cc(C(=O)NCc3cccc(/C=C/C(=O)NO)c3)ccc21 |  |  |  |  |  | 27 |  | 96 | 
39 | CC1(C)CC(=O)Nc2cc(C(=O)NCCCCCCC(=O)NO)ccc21 |  |  |  |  |  | 63 |  | 99 | 
40 | O=C(CCCCCNC(=O)c1ccc2c(c1)CCC(=O)N2)NO |  |  |  |  |  | 21 |  | 94 | 
